Values belong to the compound of their own block, whether it stands above or below them. Active and inactive are the calls of the source. No cut-off for these calls is given here.
Columns and labels:
[1] = Induction of T-cell mediated cytotoxicity against human HCC827 cells co-cultured with Jurkat cells assessed as apoptotic cells at 8 uM incubated for 36 hrs by standard CCK-8 assay relative to control; type: functional
[2] = Induction of T-cell mediated cytotoxicity against human MDA-MB-231 cells co-cultured with Jurkat cells assessed as apoptotic cells at 8 uM incubated for 36 hrs by standard CCK-8 assay relative to control; type: functional
HCC827 [3] = test: Cytotoxicity against human HCC827 cells incubated for 36 hrs by standard CCK-8 assay; type: functional, cell-based; conditions: for IC50: HCC827, 36 h
MDA-MB-231 [4] = test: Cytotoxicity against human MDA-MB-231 cells incubated for 36 hrs by standard CCK-8 assay; type: functional, cell-based; conditions: for IC50: MDA-MB-231, 36 h
dsDNA [5] = test: Binding affinity to human wild-type double stranded DNA assessed as thermal stability of compound-DNA complex by measuring change in melting temperature at stoichiometry ratio 1:0.5 by UV melting assay; type: nucleic-acid assay
dsDNA [6] = test: Binding affinity to human wild-type double stranded DNA assessed as thermal stability of compound-DNA complex by measuring change in melting temperature at stoichiometry ratio 1:1 by UV melting assay; type: nucleic-acid assay
dsDNA [7] = test: Binding affinity to human wild-type double stranded DNA assessed as thermal stability of compound-DNA complex by measuring change in melting temperature at stoichiometry ratio 1:4 by UV melting assay; type: nucleic-acid assay
dsDNA [8] = test: Binding affinity to human mutant double stranded DNA assessed as thermal stability of compound-DNA complex by measuring melting temperature change in at stoichiometry ratio 1:0.5 by UV melting assay; type: nucleic-acid assay
dsDNA [9] = test: Binding affinity to human mutant double stranded DNA assessed as thermal stability of compound-DNA complex by measuring change in melting temperature at stoichiometry ratio 1:1 by UV melting assay; type: nucleic-acid assay
dsDNA [10] = test: Binding affinity to human mutant double stranded DNA assessed as thermal stability of compound-DNA complex by measuring melting change in temperature at stoichiometry ratio 1:4 by UV melting assay; type: nucleic-acid assay
dsDNA [11] = test: Binding affinity to human 5'-biotin-double stranded DNA assessed as association rate constant by surface plasmon resonance; type: nucleic-acid assay
dsDNA [12] = test: Binding affinity to human 5'-biotin-double stranded DNA assessed as dissociation rate constant by surface plasmon resonance; type: nucleic-acid assay
dsDNA [13] = test: Binding affinity to human 5'-biotin-double stranded DNA assessed as dissociation equilibrium constant by surface plasmon resonance; type: nucleic-acid assay
DNA [14] = test: Binding affinity to wild-type double stranded DNA (unknown origin) by assessed as decrease in compound-DNA complex at >=8 uM by competitive electrophoretic mobility shift assay; type: nucleic-acid assay
[15] = Binding affinity to human single stranded DNA (unknown origin) by electrophoretic mobility shift assay
[16] = Binding affinity to DNA STAT3 binding site of PD-L1 promoter region (unknown origin) assessed as disappearance of band of wild-type double stranded DNA-STAT3 protein complex at > 8 uM by competitive electrophoretic mobility shift assay
Homo sapiens = species: Homo sapiens; test: Binding affinity to 5'-biotin-double stranded DNA (unknown origin) assessed as saturation of the compound-DNA complex at 350 to 500 nM by surface plasmon resonance; conditions: dose 350-500 nM
DNA [17] = test: Binding affinity to 5'-biotin-double stranded DNA (unknown origin) assessed as interaction with DNA to achieve steady state at 20 nM; type: nucleic-acid assay
HCC827 [18] = test: Inhibition of PD-L1 mRNA expression in IFNgamma-induced human HCC827 cells measured for 36 hrs by qRT-PCR analysis; type: functional, cell-based; conditions: dose 1.25-10 µM
MDA-MB-231 [19] = test: Inhibition of PD-L1 mRNA expression in IFNgamma-induced human MDA-MB-231 cells measured for 36 hrs by qRT-PCR analysis; type: functional, cell-based; conditions: dose 1.25-10 µM
HCC827 [20] = test: Inhibition of PD-L1 protein expression in IFNgamma-induced human HCC827 cells measured for 36 hrs by Western blot analysis; type: functional, cell-based; conditions: dose 1.25-10 µM
MDA-MB-231 [21] = test: Inhibition of PD-L1 protein expression in IFNgamma-induced human MDA-MB-231 cells measured for 36 hrs by Western blot analysis; type: functional, cell-based; conditions: dose 1.25-10 µM
[22] = Induction of T-cell mediated cell killing in human HCC827 cells co-cultured with PMA-activated Jurkat T cells assessed as IL-2 production at 8 uM by ELISA relative to control; type: functional
[23] = Induction of T-cell mediated cell killing in human MDA-MB-231 cells co-cultured with PMA-activated Jurkat T cells assessed as IL-2 production at 8 uM by ELISA relative to control; type: functional
Jurkat = test: Cytotoxicity against human Jurkat cells at 8 uM incubated for 36 hrs by standard CCK-8 assay; type: toxicity, cell-based
MRC5 = test: Cytotoxicity against human MRC5 cells at 32 uM by standard CCK-8 assay; type: toxicity, cell-based; conditions: mrc5, 32 µM
HCC827 [24] = test: Induction of apoptosis in human HCC827 cells co-cultured with human Jurkat T cells at 8 uM relative to control; type: functional
MDA-MB-231 [25] = test: Induction of apoptosis in human MDA-MB-231 cells co-cultured with human Jurkat T cells at 8 uM relative to control; type: functional
HCC827 [26] = test: Antimigratory activity in human HCC827 cells assessed as inhibition rate at 0.5 to 1 uM measured after 48 hrs by Wound healing assay relative to control; type: functional; set-up: scale not given: the % may be the effect or the level left; conditions: dose 0.5-1 µM
MDA-MB-231 [27] = test: Antimigratory activity in human MDA-MB-231 cells assessed as inhibition rate at 0.5 to 1 uM measured after 48 hrs by Wound healing assay relative to control; type: functional; set-up: scale not given: the % may be the effect or the level left; conditions: dose 0.5-1 µM
HCC827 [28] = test: Antimigratory activity in human HCC827 cells assessed as inhibition rate at 2 uM measured after 48 hrs by Wound healing assay relative to control; type: functional; set-up: scale not given: the % may be the effect or the level left
MDA-MB-231 [29] = test: Antimigratory activity in human MDA-MB-231 cells assessed as inhibition rate at 2 uM measured after 48 hrs by Wound healing assay relative to control; type: functional; set-up: scale not given: the % may be the effect or the level left
MDA-MB-231 [30] = test: Antitumour activity against human MDA-MB-231 cells assessed as measuring interleukin-2 levels by ELISA; type: functional
HCC827 [31] = test: Antitumour activity against human HCC827 cells assessed as measuring interleukin-2 levels by ELISA; type: functional
DNA [32] = test: Binding affinity to wild type double stranded DNA (unknown origin) incubated for 24 hrs by Circular Dichroism assay; type: nucleic-acid assay
DNA [33] = test: Binding affinity to wild type double stranded DNA (unknown origin) at 1:1 compound to DNA ratio incubated for 24 hrs at 340 nm by Circular Dichroism assay; type: nucleic-acid assay
DNA [34] = test: Binding affinity to wild type 28 nucleotide double stranded DNA (unknown origin) in PD-L1 gene promotor region at 1:1 compound to DNA ratio incubated for 24 hrs by Circular Dichroism assay; type: nucleic-acid assay

Structure (SMILES): COc1nc(OCc2cccc(-c3ccccc3)c2C)ccc1CNCCNC(C)=O
Activity [1]: 70.87% | Activity [2]: 87.58% | IC50 (HCC827 [3]): 8.41 µM | IC50 (MDA-MB-231 [4]): 7.92 µM

ΔTm (dsDNA [5]): 2.7 °C | ΔTm (dsDNA [6]): 8.2 °C | ΔTm (dsDNA [7]): 8.6 °C | ΔTm (dsDNA [8]): 0.2 °C | ΔTm (dsDNA [9]): 0.3 °C | ΔTm (dsDNA [10]): 0.6 °C | Ka (dsDNA [11]): 1.28 10^6/M/s | Kd (dsDNA [12]): 1.06 10^-2/s | Kd (dsDNA [13]): 0.00828 µM | Activity (DNA [14]): Active | Activity [15]: inactive | Activity [16]: Active | Activity (Homo sapiens): Active | Activity (DNA [17]): Active | Activity (DNA [32]): Active | Activity (DNA [33]): Active | Activity (DNA [34]): Active
Structure (SMILES): CC(=O)Nc1cc(C(=O)Nc2cc(C(=O)Nc3cc(C(=O)Nc4cn(C)c(C(=O)Nc5cn(C)c(C(=O)NCCC(=O)Nc6cn(C)c(C(=O)Nc7cc(C(=O)Nc8cc(C(=O)NCCCC(=O)Nc9cc(C(=O)Nc%10cc(C(=O)Nc%11cc(C(=O)NCCC(=O)Nc%12cc(C(=O)Nc%13cc(C(=O)Nc%14cn(C)c(C(=O)Nc%15cc(C(=O)Nc%16cc(C(=O)NCCC(=O)NCCCN(C)C)n(C)c%16)n(C)c%15)n%14)n(C)c%13)n(C)c%12)n(C)c%11)n(C)c%10)n(C)c9)n(C)c8)n(C)c7)n6)n5)n4)n(C)c3)n(C)c2)n(C)c1.Cl
inhibition (HCC827 [18]): Dose-Dependent Effect | inhibition (MDA-MB-231 [19]): Dose-Dependent Effect | inhibition (HCC827 [20]): Dose-Dependent Effect | inhibition (MDA-MB-231 [21]): Dose-Dependent Effect | Activity [22]: 31.41% | Activity [23]: 33% | Activity [1]: 48% | Activity [2]: 50.73% | Activity (Jurkat): Non-Toxic | IC50 (HCC827 [3]): 23.2 µM | Activity (HCC827 [3]; dose 2-32 µM): Dose-Dependent Effect | IC50 (MDA-MB-231 [4]): 21.7 µM | Activity (MDA-MB-231 [4]; dose 2-32 µM): Dose-Dependent Effect | Activity (MRC5): Non-Toxic | Activity (HCC827 [24]): 23.4% | Activity (MDA-MB-231 [25]): 27.76% | Activity (HCC827 [26]): 50% | Activity (MDA-MB-231 [27]): 50% | Activity (HCC827 [28]): >70% | Activity (MDA-MB-231 [29]): >70% | Activity (MDA-MB-231 [30]): 48.06 pg/mL | Activity (HCC827 [31]): 28.2 pg/mL

Reference: ChEMBL document CHEMBL5223080, “Discovery of Pyrrole-imidazole Polyamides as PD-L1 Expression Inhibitors and Their Anticancer Activity via Immune and Nonimmune Pathways” (J Med Chem, 2021)
